Where two headings read alike, the source gives them in different places.
Biological target: human LPAR1 (Homo sapiens, UniProt Q92633)
Assay: In vitro functional assay of lysophosphatidic acid receptor 1 activity (calcium flux)
Type: cell-based
[1] = B103 cells stably expressing human LPAR1, calcium flux (Fluo-4 NW) after lysophosphatidic acid (18:1) at EC80, 100 pM to 10 μM, read-out: LPAR1 IC50

Chain of human LPAR1 (Q92633 whole entry): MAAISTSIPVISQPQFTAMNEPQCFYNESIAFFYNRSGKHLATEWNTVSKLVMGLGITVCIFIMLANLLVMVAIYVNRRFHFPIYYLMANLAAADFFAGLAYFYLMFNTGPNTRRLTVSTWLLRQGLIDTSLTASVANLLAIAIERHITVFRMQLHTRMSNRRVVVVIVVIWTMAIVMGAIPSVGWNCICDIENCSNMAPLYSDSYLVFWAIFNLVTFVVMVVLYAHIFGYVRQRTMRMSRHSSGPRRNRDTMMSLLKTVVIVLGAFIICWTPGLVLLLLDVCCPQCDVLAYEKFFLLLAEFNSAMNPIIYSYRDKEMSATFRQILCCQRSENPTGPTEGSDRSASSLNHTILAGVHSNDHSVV

SMILES	IC50 [1] [nM]	IC50 (LPAR1 IC50) [nM]
COc1ccc(NC(=O)N(c2ccccc2C(C)C)[C@H]2C[C@@]3(C[C@@H]3C(=O)O)C2)c(OC(F)F)n1 [Example 149]	10 to 100	
Cc1ccc(NC(=O)N(c2ccccc2C(C)C)[C@H]2CC[C@H](CC(C)(C)O)CC2)c(OC(F)F)n1 [Example 247, 3-(2-(difluoromethoxy)-6-methylpyridin-3-yl)-1-((1r,4r)-4-(2-hydroxy-2-methylpropyl)cyclohexyl)-1-(2-isopropylphenyl)urea]	10 to 100	
COc1ccc(NC(=O)N(c2ccccc2C(C)C)[C@H]2CC[C@@](O)(C(F)(F)C(=O)O)CC2)c(OC(F)F)n1 [Example 321, 2-((1r,4r)-4-(3-(2-(difluoromethoxy)-6-methoxypyridin-3-yl)-1-(2-isopropylphenyl)ureido)-1-hydroxycyclohexyl)-2,2-difluoroacetic acid]	< 10	
CC(=O)N[C@H]1CC[C@H](N(C(=O)Nc2ccc(C)nc2OC(F)F)c2ccccc2C(C)C)CC1 [Example 267, N-((1r,4r)-4-(3-(2-(difluoromethoxy)-6-methylpyridin-3-yl)-1-(2-isopropylphenyl)ureido)cyclohexyl)acetamide]	10 to 100	
Cc1ccc(NC(=O)N(CC23CCC(C(=O)O)(CC2)CC3)c2ccccc2C(C)C)c(OC(F)F)n1 [Example 167]	10 to 100	
Cc1ccc(NC(=O)N(c2ccccc2C(C)C)[C@H]2CCN(C(=O)Cn3nccn3)C2)c(OC(F)F)n1 [Example 83, (S)-1-(1-(2-(2H-1,2,3-triazol-2-yl)acetyl)pyrrolidin-3-yl)-3-(2-(difluoromethoxy)-6-methylpyridin-3-yl)-1-(2-isopropylphenyl)urea]	100 to 1000	
Cc1ccc(NC(=O)N(c2ccccc2C(C)C)C2CC3(C2)CN(S(C)(=O)=O)C3)c(OC(F)F)n1 [Example 76, 3-(2-(difluoromethoxy)-6-methylpyridin-3-yl)-1-(2-isopropylphenyl)-1-(2-(methylsulfonyl)-2-azaspiro[3.3]heptan-6-yl)urea]	100 to 1000	
CC(C)c1ccccc1N(C(=O)Nc1ncc(Cl)cc1OC(F)F)[C@H]1CC[C@H](C(=O)O)CC1 [Example 336, (1r,4r)-4-(3-(5-chloro-3-(difluoromethoxy)pyridin-2-yl)-1-(2-isopropylphenyl)ureido)cyclohexane-1-carboxylic acid]	10 to 100	
COc1ccc(NC(=O)N(c2ccccc2C(C)C)[C@H]2C[C@H](C(=O)O)C2)c(OC(F)F)n1 [Example 151]	10 to 100	
COc1cc(Cl)c(F)cc1NC(=O)N(c1ccccc1C(C)C)[C@H]1CC[C@H](C(=O)O)CC1 [Example 333, (1r,4r)-4-(3-(4-chloro-5-fluoro-2-methoxyphenyl)-1-(2-isopropylphenyl)ureido)cyclohexane-1-carboxylic acid]	< 10	
COc1ccc(NC(=O)N(c2ccccc2C(C)C)C2CCN(C)C(=O)C2)c(OC(F)F)n1 (centres unmarked) [Example 44, 3-(2-(difluoromethoxy)-6-methoxypyridin-3-yl)-1-(2-isopropylphenyl)-1-(1-methyl-2-oxopiperidin-4-yl)urea]	10 to 100	
COC[C@H](C)Oc1cc(C)ncc1NC(=O)N(c1ccccc1C(C)C)[C@H]1CC[C@H](C(=O)O)CC1 [Example 317, trans-4-(1-(2-isopropylphenyl)-3-(4-(((S)-1-methoxypropan-2-yl)oxy)-6-methylpyridin-3-yl)ureido)cyclohexane-1-carboxylic acid]	100 to 1000	
Cc1ccc(NC(=O)N(c2ccccc2C(C)C)[C@H]2C[C@@H](CC#N)C2)c(OC(F)F)n1 [Example 28, 1-((1r,3s)-3-(cyanomethyl)cyclobutyl)-3-(2-(difluoromethoxy)-6-methylpyridin-3-yl)-1-(2-isopropylphenyl)urea]	10 to 100	
COc1ccc(NC(=O)N(c2ccccc2C(C)C)[C@H]2CC[C@H](C(=O)NS(C)(=O)=O)CC2)c(OC(F)F)n1 [Example 279, (1r,4r)-4-(3-(2-(difluoromethoxy)-6-methoxypyridin-3-yl)-1-(2-isopropylphenyl)ureido)-N-(methylsulfonyl)cyclohexane-1-carboxamide]	< 10	
Cc1ccc(NC(=O)N(c2ccccc2C(C)C)C2CN(C(=O)Cn3nccn3)C2)c(OC(F)F)n1 [Example 80, 1-(1-(2-(2H-1,2,3-triazol-2-yl)acetyl)azetidin-3-yl)-3-(2-(difluoromethoxy)-6-methylpyridin-3-yl)-1-(2-isopropylphenyl)urea]	100 to 1000	
Cc1ccc(NC(=O)N(c2ccccc2C(C)C)[C@H]2CC[C@@H](CO)CC2)c(OC(F)F)n1 [Example 242]	100 to 1000	
COc1ccc(NC(=O)N(c2ccccc2C(C)C)[C@H]2CCC[C@H](C(=O)O)C2)c(OC(F)F)n1 [Example 146]	10 to 100	
COc1ccc(NC(=O)N(c2ccccc2C(C)C)[C@@H]2CCN(C3COC3)C2)c(OC(F)F)n1 [Example 37, (R)-3-(2-(difluoromethoxy)-6-methoxypyridin-3-yl)-1-(2-isopropylphenyl)-1-(1-(oxetan-3-yl)pyrrolidin-3-yl)urea]	100 to 1000	
CC(=O)N1CC[C@H]1CN(C(=O)Nc1ccc(C)nc1OC(F)F)c1ccccc1C(C)C [Example 72, (S)-1-((1-acetylazetidin-2-yl)methyl)-3-(2-(difluoromethoxy)-6-methylpyridin-3-yl)-1-(2-isopropylphenyl)urea]	100 to 1000	
CC(=O)N1CC2(CC(N(C(=O)Nc3ccc(C)nc3OC(F)F)c3ccccc3C(C)C)C2)C1 [Example 70, 1-(2-acetyl-2-azaspiro[3.3]heptan-6-yl)-3-(2-(difluoromethoxy)-6-methylpyridin-3-yl)-1-(2-isopropylphenyl)urea]	100 to 1000	
COc1ccc(NC(=O)N(c2ccccc2C(C)C)[C@H]2CC[C@H](S(C)(=O)=O)CC2)c(OC(F)F)n1 [Example 258, 3-(2-(difluoromethoxy)-6-methoxypyridin-3-yl)-1-(2-isopropylphenyl)-1-((1r,4r)-4-(methylsulfonyl)cyclohexyl)urea]	100 to 1000	

SMILES	IC50 [1] [nM]	IC50 (LPAR1 IC50) [nM]
COc1ccc(NC(=O)N(c2ccccc2C(C)C)[C@H]2C[C@@H](C(=O)O)C2)c(OC(F)F)n1 [Example 152]	100 to 1000	
Cc1ccc(NC(=O)N(c2ccccc2C(C)C)C2CC(=O)N(C)C2)c(OC(F)F)n1 (centres unmarked) [Example 7, 3-(2-(difluoromethoxy)-6-methylpyridin-3-yl)-1-(2-isopropylphenyl)-1-(1-methyl-5-oxopyrrolidin-3-yl)urea]	100 to 1000	
COc1ccc(NC(=O)N(c2ccccc2C(C)C)C2CN(C(C)=O)C2)c(OC)c1C [Example 119]	100 to 1000	
COc1ccc(NC(=O)N(c2ccccc2C(C)C)C2CCN(C(=O)CC#N)CC2)c(OC(F)F)n1 [Example 85, 1-(1-(2-cyanoacetyl)piperidin-4-yl)-3-(2-(difluoromethoxy)-6-methoxypyridin-3-yl)-1-(2-isopropylphenyl)urea]		10 to 100
Cc1ccc(NC(=O)N(c2ccccc2C(C)C)[C@H]2CC[C@@H](C(C)(C)O)CC2)c(OC(F)F)n1 [Example 238, 3-(2-(difluoromethoxy)-6-methylpyridin-3-yl)-1-((1s,4s)-4-(2-hydroxypropan-2-yl)cyclohexyl)-1-(2-isopropylphenyl)urea]	100 to 1000	
COc1ccc(NC(=O)N(c2ccccc2C(C)C)[C@@H]2CCC[C@H](C(=O)O)C2)c(OC(F)F)n1 [Example 286]	10 to 100	
CC(C)c1ccccc1N(C(=O)Nc1cc(F)c(Cl)cc1OCC(F)F)[C@H]1C[C@@H](CC(=O)O)C1 [Example 331]	< 10	
CC(C)c1ccccc1N(C(=O)Nc1cc(F)c(F)cc1OC(F)F)[C@H]1C[C@@H](CC(=O)O)C1 [Example 329]	< 10	
CC(=O)N1CCC(N(C(=O)Nc2ccc(C)nc2OC(F)F)c2ccccc2C(C)C)CC1 [Example 66, 1-(1-acetylpiperidin-4-yl)-3-(2-(difluoromethoxy)-6-methylpyridin-3-yl)-1-(2-isopropylphenyl)urea]		< 10
Cc1ccc(NC(=O)N(c2ccccc2C(C)C)[C@H]2C[C@H](CC#N)C2)c(OC(F)F)n1 [Example 27, 1-((1r,3r)-3-(cyanomethyl)cyclobutyl)-3-(2-(difluoromethoxy)-6-methylpyridin-3-yl)-1-(2-isopropylphenyl)urea]	100 to 1000	
Cc1ccc(NC(=O)N(c2ccccc2C(C)C)C2CC3(C2)CN(C(=O)Cn2nccn2)C3)c(OC(F)F)n1 [Example 84, 1-(2-(2-(2H-1,2,3-triazol-2-yl)acetyl)-2-azaspiro[3.3]heptan-6-yl)-3-(2-(difluoromethoxy)-6-methylpyridin-3-yl)-1-(2-isopropylphenyl)urea]	100 to 1000	
CC(=O)N1CC[C@@H]1CN(C(=O)Nc1ccc(C)nc1OC(F)F)c1ccccc1C(C)C [Example 71, (R)-1-((1-acetylazetidin-2-yl)methyl)-3-(2-(difluoromethoxy)-6-methylpyridin-3-yl)-1-(2-isopropylphenyl)urea]	> 1000	
COc1ccc(NC(=O)N(c2ccccc2C2CC2)[C@H]2CC[C@H](C(=O)O)CC2)c(OC(F)F)n1 [Example 275]	10 to 100	
Cc1ccc(NC(=O)N(c2ccccc2C(C)C)[C@H]2CC[C@@](C)(C(=O)O)CC2)c(OC(F)F)n1 [Example 308]	100 to 1000	
COc1ccc(NC(=O)N(c2ccccc2C(C)C)C2CC3(CC(C(=O)O)C3)C2)c(OC(F)F)n1 (centres unmarked) [Example 233]	10 to 100	
Cc1ccc(NC(=O)N(c2ccccc2C(C)C)[C@H]2CC[C@@H](C(=O)O)C2)c(OC(F)F)n1 [Example 301]	10 to 100	
COC(=O)[C@H]1C[C@H](N(C(=O)Nc2cc(F)c(F)cc2OC(F)F)c2ccccc2C(C)C)C1 [Example 163, methyl (1r,3r)-3-(3-(2-(difluoromethoxy)-4,5-difluorophenyl)-1-(2-isopropylphenyl)ureido)cyclobutane-1-carboxylate]	> 1000	
CC(=O)N1CCC(N(C(=O)Nc2ccc(C)nc2OC(F)F)c2cccc(C(C)C)c2)CC1 [Example 32, 1-(1-acetylpiperidin-4-yl)-3-(2-(difluoromethoxy)-6-methylpyridin-3-yl)-1-(3-isopropylphenyl)urea]		100 to 1000
Cc1ccc(NC(=O)N(c2ccccc2C(C)C)[C@H]2C[C@@H](O)C2)c(OC(F)F)n1 [Example 182]	100 to 1000	
COc1ccc(NC(=O)N(c2ccccc2C(C)C)C2CN(C(C)=O)C2)c(OC)n1 [Example 118]	100 to 1000	
